Patent publication US9758538B2, “Pyrimidine derivatives” (PFIZER INC., priority 2015, dated 2017)

Target: truncated PI3Kα (p110α/iSH2 p85α), PI3KA_Act (Homo sapiens (Human), UniProt P42336)
Assay: PI3Kα biochemical kinase assay, fluorescence polarization format (PI3KA_Act)
Settings: 0.5 nM p110α/iSH2 p85, 1 mM ATP, 30 μM PIP2, 15-min preincubation; Morrison equation fit; read-out: PI3KA_Act Ki
Outline: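 Enzyme: His-tagged p110α/p85α niSH2 complex from Sf21 baculovirus expression, IMAC-purified, tag cleaved, then SEC. Reactions ran 30 min at room temperature, stopped with 10 mM EDTA pH 8 (final), and were read by fluorescence polarization.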

truncated PI3Kα (p110α/iSH2 p85α), PI3KA_Act, sequence (P42336 whole entry, the tested form may be a part): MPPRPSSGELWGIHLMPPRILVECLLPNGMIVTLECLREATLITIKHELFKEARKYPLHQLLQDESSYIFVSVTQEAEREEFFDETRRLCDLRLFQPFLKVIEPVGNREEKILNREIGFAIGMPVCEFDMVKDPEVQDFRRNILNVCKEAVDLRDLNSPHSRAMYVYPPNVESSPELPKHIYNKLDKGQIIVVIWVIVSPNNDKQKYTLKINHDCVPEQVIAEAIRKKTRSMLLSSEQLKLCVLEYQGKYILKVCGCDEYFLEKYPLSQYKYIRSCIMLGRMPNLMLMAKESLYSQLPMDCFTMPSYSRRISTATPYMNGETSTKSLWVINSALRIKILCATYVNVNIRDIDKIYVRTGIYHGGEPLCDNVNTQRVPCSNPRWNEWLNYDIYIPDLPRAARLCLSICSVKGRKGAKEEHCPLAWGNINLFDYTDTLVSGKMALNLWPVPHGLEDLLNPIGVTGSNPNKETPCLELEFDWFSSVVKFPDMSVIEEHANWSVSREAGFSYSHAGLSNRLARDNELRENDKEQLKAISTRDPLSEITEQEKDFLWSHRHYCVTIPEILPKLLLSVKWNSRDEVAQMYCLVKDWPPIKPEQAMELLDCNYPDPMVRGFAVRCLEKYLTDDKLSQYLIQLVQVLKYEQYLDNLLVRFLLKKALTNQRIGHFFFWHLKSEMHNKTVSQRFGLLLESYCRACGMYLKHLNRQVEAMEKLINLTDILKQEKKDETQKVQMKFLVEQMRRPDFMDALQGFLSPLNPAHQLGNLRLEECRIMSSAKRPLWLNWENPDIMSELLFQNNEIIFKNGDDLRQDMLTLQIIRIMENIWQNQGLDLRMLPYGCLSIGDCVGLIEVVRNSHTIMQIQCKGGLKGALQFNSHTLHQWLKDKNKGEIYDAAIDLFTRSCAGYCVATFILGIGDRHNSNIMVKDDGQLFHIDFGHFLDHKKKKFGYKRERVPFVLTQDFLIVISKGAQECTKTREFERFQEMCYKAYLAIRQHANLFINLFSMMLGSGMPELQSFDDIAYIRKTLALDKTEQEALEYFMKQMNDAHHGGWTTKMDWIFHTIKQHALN

Row | SMILES | Ki
1 | CN(C)C(=O)CN1CC[C@](CO)(Nc2cc(-c3cnc(N)nc3)nc(N3CCOCC3)n2)C1 [Example 100, 2-[(3S)-3-{[2′-amino-2-(morpholin-4-yl)-4,5′-bipyrimidin-6-yl]amino}-3-(hydroxymethyl)pyrrolidin-1-yl]-N,N-dimethylacetamide] | 1.48 nM
2 | C[C@H]1COCCN1c1nc(NC2(CO)CNC2)cc(-c2cnc(N)nc2)n1 [Example 54, [3-({2′-amino-2-[(3S)-3-methylmorpholin-4-yl]-4,5′-bipyrimidin-6-yl}amino)azetidin-3-yl]methanol] | 2.67 nM
3 | CC(=O)N1CC[C@](C)(Nc2nc(N3CCOCC3)nc(-c3cnc(N)nc3)c2F)C1 [Example 106, 1-[(3S)-3-{[2′-amino-5-fluoro-2-(morpholin-4-yl)-4,5′-bipyrimidin-6-yl]amino}-3-methylpyrrolidin-1-yl]ethanone] | 0.12 nM
4 | CC(C)(C)OC(=O)N1CC[C@](CO)(Nc2nc(N3CCOCC3)nc(-c3cnc(N)nc3)c2F)C1 [Example 38, tert-butyl (3S)-3-{[2′-amino-5-fluoro-2-(morpholin-4-yl)-4,5′-bipyrimidin-6-yl]amino}-3-(hydroxymethyl)pyrrolidine-1-carboxylate] | < 0.018 nM
5 | COC(=O)N1CCCC(CO)(Nc2cc(-c3cnc(N)nc3)nc(N3CCOCC3)n2)C1 (racemic) [Example 4, methyl 3-{[2′-amino-2-(morpholin-4-yl)-4,5′-bipyrimidin-6-yl]amino}-3-(hydroxymethyl)piperidine-1-carboxylate] | 0.03 nM
6 | COC(=O)N1CC[C@](CO)(Nc2cc(-c3cnc(N)nc3)nc(N3CCOC[C@@H]3C)n2)C1 [Example 65, methyl (3S)-3-({2′-amino-2-[(3S)-3-methylmorpholin-4-yl]-4,5′-bipyrimidin-6-yl}amino)-3-(hydroxymethyl)pyrrolidine-1-carboxylate] | < 0.018 nM
